Test results reported in patent publication US20230151025A1, “SUBSTITUTED THIAZOLOPYRIDINES, SALTS THEREOF AND THEIR USE AS HERBICIDALLY ACTIVE SUBSTANCES” (Bayer Aktiengesellschaft, priority 2020, published 2023).

Legend:
Type in all cases: in vivo
[1] = tested on: Echinochloa crus-galli (ECHCG); assay: Herbicidal post-emergence action (B), 1280 g/ha; conditions: rated visually after about 3 weeks vs untreated controls
Summary of the method: (§1)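 Post-emergence greenhouse test: weeds in sandy loam treated at the one-leaf stage, 2 to 3 weeks after sowing, with WP or EC formulations plus 0.5% additive at 600 l/ha water. Visual activity versus untreated controls after about 3 weeks (100% = dead, 0% = like control).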

[2] = tested on: Digitaria sanguinalis (DIGSA); assay: Herbicidal post-emergence action (B), 1280 g/ha; conditions: rated visually after about 3 weeks vs untreated controls
Summary of the method: as §1

[3] = tested on: Stellaria media (STEME); assay: Herbicidal post-emergence action (B), 1280 g/ha
Summary of the method: as §1

[4] = tested on: Amaranthus retroflexus (AMARE); assay: Herbicidal post-emergence action (B), 1280 g/ha; conditions: rated visually after about 3 weeks vs untreated controls
Summary of the method: as §1

[5] = tested on: Matricaria inodora (MATIN); assay: Herbicidal post-emergence action (B), 1280 g/ha; conditions: rated visually after about 3 weeks vs untreated controls
Summary of the method: as §1

[6] = tested on: Veronica persica (VERPE); assay: Herbicidal post-emergence action (B), 1280 g/ha
Summary of the method: as §1

[7] = tested on: Abutilon theophrasti (ABUTH); assay: Herbicidal post-emergence action (B), 1280 g/ha; conditions: rated visually after about 3 weeks vs untreated controls
Summary of the method: as §1

[8] = tested on: Kochia scoparia (KCHSC; Bassia scoparia); assay: Herbicidal post-emergence action (B), 1280 g/ha
Summary of the method: as §1

[9] = tested on: Setaria viridis (SETVI); assay: Herbicidal post-emergence action (B), 1280 g/ha; conditions: rated visually after about 3 weeks vs untreated controls
Summary of the method: as §1

[10] = tested on: Poa annua (POAAN); assay: Herbicidal post-emergence action (B), 1280 g/ha; conditions: rated visually after about 3 weeks vs untreated controls
Summary of the method: as §1

[11] = tested on: Alopecurus myosuroides (ALOMY); assay: Herbicidal post-emergence action (B), 1280 g/ha; conditions: rated visually after about 3 weeks vs untreated controls
Summary of the method: as §1

[12] = tested on: Echinochloa crus-galli (ECHCG); assay: Herbicidal pre-emergence action (C), 320 g/ha; conditions: ca. 3 weeks
Summary of the method: (§2)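 Sandy loam pots, seeds covered with soil → WP/EC compound sprayed on soil surface (aq., +0.5% additive, 600 l/ha) → greenhouse, optimum growth → visual herbicidal effect (%) at ca. 3 wk vs untreated.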

[13] = tested on: Amaranthus retroflexus (AMARE); assay: Herbicidal pre-emergence action (C), 320 g/ha; conditions: ca. 3 weeks
Summary of the method: as §2

[14] = tested on: Lolium rigidum (LOLRI); assay: Herbicidal pre-emergence action (C), 320 g/ha; conditions: ca. 3 weeks
Summary of the method: as §2

[15] = tested on: Setaria viridis (SETVI); assay: Herbicidal pre-emergence action (C), 320 g/ha; conditions: ca. 3 weeks
Summary of the method: as §2

[16] = tested on: Alopecurus myosuroides (ALOMY); assay: Herbicidal pre-emergence action (C), 320 g/ha; conditions: ca. 3 weeks
Summary of the method: as §2

[17] = tested on: Echinochloa crus-galli (ECHCG); assay: Herbicidal pre-emergence action (A), 1280 g/ha; conditions: visual grading after ca. 3 weeks vs untreated controls, 100% = plants have died off, 0% = as control plants
Summary of the method: (§3)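 Pre-emergence greenhouse test: seeds sown in sandy loam pots, WP or EC formulations sprayed onto covering soil as aqueous suspension/emulsion with 0.5% additive at 600 l water/ha. Damage graded visually after ca. 3 weeks versus untreated controls, 0% = as control, 100% = plants dead.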

[18] = tested on: Digitaria sanguinalis (DIGSA); assay: Herbicidal pre-emergence action (A), 1280 g/ha; conditions: visual grading after ca. 3 weeks vs untreated controls, 100% = plants have died off, 0% = as control plants
Summary of the method: as §3

[19] = tested on: Stellaria media (STEME); assay: Herbicidal pre-emergence action (A), 1280 g/ha; conditions: visual grading after ca. 3 weeks vs untreated controls
Summary of the method: as §3

[20] = tested on: Amaranthus retroflexus (AMARE); assay: Herbicidal pre-emergence action (A), 1280 g/ha; conditions: visual grading after ca. 3 weeks vs untreated controls
Summary of the method: as §3

[21] = tested on: Lolium rigidum (LOLRI); assay: Herbicidal pre-emergence action (A), 1280 g/ha; conditions: visual grading after ca. 3 weeks vs untreated controls, 100% = plants have died off, 0% = as control plants
Summary of the method: as §3

[22] = tested on: Matricaria inodora (MATIN); assay: Herbicidal pre-emergence action (A), 1280 g/ha; conditions: visual grading after ca. 3 weeks vs untreated controls
Summary of the method: as §3

[23] = tested on: Veronica persica (VERPE); assay: Herbicidal pre-emergence action (A), 1280 g/ha; conditions: visual grading after ca. 3 weeks vs untreated controls
Summary of the method: as §3

[24] = tested on: Kochia scoparia (KCHSC; Bassia scoparia); assay: Herbicidal pre-emergence action (A), 1280 g/ha; conditions: visual grading after ca. 3 weeks vs untreated controls
Summary of the method: as §3

[25] = tested on: Setaria viridis (SETVI); assay: Herbicidal pre-emergence action (A), 1280 g/ha; conditions: visual grading after ca. 3 weeks vs untreated controls
Summary of the method: as §3

[26] = tested on: Poa annua (POAAN); assay: Herbicidal pre-emergence action (A), 1280 g/ha; conditions: visual grading after ca. 3 weeks vs untreated controls, 100% = plants have died off, 0% = as control plants
Summary of the method: as §3

[27] = tested on: Alopecurus myosuroides (ALOMY); assay: Herbicidal pre-emergence action (A), 1280 g/ha; conditions: visual grading after ca. 3 weeks vs untreated controls, 100% = plants have died off, 0% = as control plants
Summary of the method: as §3

[28] = tested on: Echinochloa crus-galli (ECHCG); assay: Herbicidal post-emergence action (D), 320 g/ha; conditions: ca. 3 weeks
Summary of the method: (§4)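 Post-emergence greenhouse spray of WP or EC formulations plus 0.5% additive at 600 l water/ha onto single-leaf-stage plants, 2–3 weeks after sowing in sandy loam. About 3 weeks later, effect was rated visually against untreated controls as % herbicidal effect, where 0% means like control and 100% means plants dead.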

[29] = tested on: Amaranthus retroflexus (AMARE); assay: Herbicidal post-emergence action (D), 320 g/ha; conditions: ca. 3 weeks
Summary of the method: as §4

[30] = tested on: Abutilon theophrasti (ABUTH); assay: Herbicidal post-emergence action (D), 320 g/ha; conditions: ca. 3 weeks
Summary of the method: as §4

[31] = tested on: Alopecurus myosuroides (ALOMY); assay: Herbicidal post-emergence action (D), 320 g/ha; conditions: ca. 3 weeks
Summary of the method: as §4

[32] = tested on: Digitaria sanguinalis (DIGSA); assay: Herbicidal pre-emergence action (C), 320 g/ha; conditions: ca. 3 weeks
From the text: Seeds of mono- and dicotyledonous weed plants and crop plants were sown, in plastic or organic planting pots, in sandy loam and covered with soil. The compounds according to the invention, formulated in the form of wettable powders (WP) or as emulsifiable concentrates (EC), were applied to the surface of the covering soil as aqueous suspension or emulsion, with the addition of 0.5% of an additive, at an application rate of 600 l of water/ha (converted).
Following treatment, the pots were placed in a greenhouse and kept under optimum growth conditions for the test plants. The visual grading of the damage to the test plants was carried out after ca. 3 weeks in comparison to untreated controls (herbicidal effect in percent (%): 100% effect=plants have died off, 0% effect=as control plants).
Tables C1 to C13 below show the effects of selected compounds of the general formula (I) according to table 1 on various harmful plants and an application rate corresponding to 320 g/ha obtained by the experimental procedure mentioned above.

[33] = tested on: Veronica persica (VERPE); assay: Herbicidal pre-emergence action (C), 320 g/ha; conditions: ca. 3 weeks
Summary of the method: as §2

[34] = tested on: Abutilon theophrasti (ABUTH); assay: Herbicidal pre-emergence action (C), 320 g/ha; conditions: ca. 3 weeks
Summary of the method: as §2

[35] = tested on: Veronica persica (VERPE); assay: Herbicidal post-emergence action (D), 320 g/ha; conditions: ca. 3 weeks
Summary of the method: as §4

[36] = tested on: Setaria viridis (SETVI); assay: Herbicidal post-emergence action (D), 320 g/ha; conditions: ca. 3 weeks
Summary of the method: as §4

[37] = tested on: Polygonum convolvulus (POLCO); assay: Herbicidal post-emergence action (D), 320 g/ha; conditions: ca. 3 weeks
Summary of the method: as §4

Structure (SMILES)	herbicidal activity ECHCG [1] [%]	herbicidal effect STEME [3] [%]	herbicidal activity AMARE [4] [%]	herbicidal effect VERPE [6] [%]	herbicidal effect KCHSC [8] [%]	herbicidal activity SETVI [9] [%]	herbicidal activity POAAN [10] [%]	herbicidal effect ECHCG [12] [%]	herbicidal effect AMARE [13] [%]	herbicidal effect SETVI [15] [%]	herbicidal effect ALOMY [16] [%]	ECHCG, herbicidal effect in percent (%) [17] [%]	herbicidal effect STEME [19] [%]	herbicidal effect AMARE [20] [%]	LOLRI, herbicidal effect in percent (%) [21] [%]	herbicidal effect MATIN [22] [%]	herbicidal effect VERPE [23] [%]	herbicidal effect KCHSC [24] [%]	herbicidal effect SETVI [25] [%]	POAAN, herbicidal effect in percent (%) [26] [%]	further results
c1ccc(-c2ccc3scnc3n2)cc1 [Example I-010]	90	100	100	100	100	100	100	100	90	100	100	100	100	90	100	100	90	90	100	100	herbicidal activity DIGSA [2]: 100%; herbicidal activity MATIN [5]: 100%; herbicidal activity ABUTH [7]: 100%; herbicidal activity ALOMY [11]: 100%; herbicidal effect LOLRI [14]: 100%; DIGSA, herbicidal effect in percent (%) [18]: 100%; ALOMY, herbicidal effect in percent (%) [27]: 100%; herbicidal effect ECHCG [28]: 90%; herbicidal effect AMARE [29]: 80%; herbicidal effect ABUTH [30]: 80%; herbicidal effect ALOMY [31]: 90%; herbicidal effect DIGSA [32]: 100%
Clc1cc2scnc2nc1-c1sccc1Cl [Example I-189]	100	90	90	90	90	90	90	100	80	100	100	100	90	90	90	90	90	90	100	100	herbicidal effect VERPE [33]: 80%; herbicidal effect ABUTH [34]: 80%; ALOMY, herbicidal effect in percent (%) [27]: 90%; herbicidal effect ECHCG [28]: 90%; herbicidal effect VERPE [35]: 80%; herbicidal effect ABUTH [30]: 80%; herbicidal effect SETVI [36]: 90%; herbicidal effect POLCO [37]: 80%; herbicidal effect ALOMY [31]: 90%
